Measured values as given in patent US20250034139A1, “AMINE COMPOUNDS HAVING ANTI-INFLAMMATORY, ANTIFUNGAL, ANTIPARASITIC, AND ANTICANCER ACTIVITY” (PHARMA CINQ, LLC, priority 2013, published 2025).
In brackets after ≈: the same amount, converted by molar mass. Read-outs that look alike come from different tables or passages of the source.

Assays:
THP-1 cells = assay: Example D: LPS-triggered THP-1 cell death assay, acute/5-hour and chronic/48-hour; type: cell-based, Human; conditions: for activity relative to AC in the LPS-triggered THP-1 cell death assay, in words: 0.1 μM, 5-hour and 48-hour time points
Description: Compounds of the invention were tested at 0.1 μM versus AC in the LPS-triggered THP-1 cell death assay. Both acute/5-hour and chronic/48-hour phases of cell death were assessed. Compounds were screened in batches with DMSO as the negative control and AC as the high activity control.

S. cerevisiae = assay: Example I: Saccharomyces cerevisiae growth inhibition (OD 600 nm); type: cell-based; conditions: Saccharomyces cerevisiae, 18 hour incubation at 30° C., OD 600 nm, XLfit; for IC50: read-out: IC50, uM (50% inhibition of fungal growth); for MIC: read-out: MIC, uM (99% of inhibition of fungal growth)
Candida glabrata strains = assay: Example N: MIC and MFC (CLSI) against Candida glabrata; type: cell-based; conditions: Nakaseomyces glabratus; for MIC: read-out: MIC 100%; for MFC: range over Candida glabrata strains, in 48 hr
Description: (§1) The objective of this study was to determine the antifungal activity of eight experimental compounds against a representative panel of fungal isolates, including Candida albicans, C. glabrata, Cryptococcus neoformans, Trichophyton rubrum, Aspergillus fumigatus, and Rhizopus spp. Antifungal activity was measured by minimum inhibitory concentration (MIC) and minimum fungicidal concentration (MFC).
(§2) Three recent clinical strains of each species, taken from the culture collection at the Center for Medical Mycology, Case Western University, were tested.
(§3) Compounds in powder form were dissolved in DMSO. Serial dilutions of each compound were then prepared in RPMI-1640 in a range of […].
(§4) MIC testing was performed according to the CLSI M27-A3 and M38-A2 standards for the susceptibility testing of yeasts and filamentous fungi, respectively (1, 2). Test isolates were subcultured from frozen slants onto potato dextrose agar plates (Trichophyton rubrum was subcultured onto oatmeal plates for conidia production) and checked for purity. Inocula were then prepared in RPMI-1640 (YNB for Cryptococcus) to a concentration of 0.5-2.5×10^3 colony-forming units (CFU)/ml or 0.4-5×10^4 conidia/ml for yeast and filamentous fungi, respectively.
(§5) MFC determinations were performed according to the modifications previously described by Canton et al. and Ghannoum and Isham. (3, 4) Specifically, the total contents of each clear well from the MIC assay were subcultured onto potato dextrose agar. To avoid antifungal carryover, the aliquots were allowed to soak into the agar and then were streaked for isolation once dry, thus removing the cells from the drug source.

[1] = tested on: Cryptococcus neoformans strains; assay: Example N: MIC and MFC (CLSI) against Cryptococcus neoformans; type: cell-based; conditions: Cryptococcus neoformans, three clinical strains; for MIC: read-out: MIC 100%, Range, incubated for 72 hrs
Description: as §1, §2, §3, §4, §5

Rhizopus strains = assay: Example N: MIC and MFC (CLSI) against Rhizopus; type: cell-based, Rhizopus spp.; conditions: for MIC50 / MIC: Rhizopus; for MIC: read-out: MIC 100%
Description: as §1, §2, §3, §4, §5

[2] = tested on: Trichophyton rubrum strains; assay: Example N: MIC and MFC (CLSI) against Trichophyton rubrum; type: cell-based; conditions: for MIC: read-out: MIC 100%, Range, incubated for 96 hrs, three clinical strains; for MFC: three clinical strains
Description: as §1, §2, §3, §4, §5

[3] = tested on: 4T1 murine breast cancer cells; assay: Example S: in vitro anticancer screen, 4T1 cells, Wst1; type: cell-based, mouse; conditions: Mus musculus, 4T1, 18 h, 18 hr, Wst1; for viability at 1 µM: read-out: 4T1 1 μM, percent of cancer cell survival relative to vehicle treated cells; for viability at 5 µM: read-out: 4T1 5 μM, percent of cancer cell survival relative to vehicle treated cells
Procedure, shortened: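 Read-out is Wst1 absorbance (450 nm, reference 630 nm) after roughly 2 hr dye incubation, giving percent cell survival versus vehicle. Before that, compounds at 1 μM or 5 μM were applied for 18 hr to 4T1 cells plated at 1×10^4 per well.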

[4] = tested on: PC3 human prostate cancer cells; assay: Example S: in vitro anticancer screen, PC-3 cells, Wst1; type: cell-based; conditions: Homo sapiens, PC-3; 0.4 μM, approximately 20 hours, Wst1; read-out: PC-3, percent of cancer cell survival relative to vehicle treated cells
Procedure, shortened: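 Values give percent survival relative to vehicle, read by Wst1 absorbance (450/630 nm) after 2 h dye incubation, in triplicate. Cells were seeded at 2×10^4/well and treated about 20 h with compound at 0.4, 0.5 or 2.5 μM, depending on compound.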

[5] = tested on: PC-3 prostate cancer cells; assay: Example T: sensitisation of PC-3 cells to doxorubicin, oxaliplatin, paclitaxel or vincristine, Wst1; type: cell-based, human; conditions: PC-3 cells, 72 hours; for viability at 0.4 µM: Homo sapiens, compound 0.4 μM alone, Wst1, vehicle = 100, read-out: No Chemo: percent cell survival; for Doxorubicin 3.5 μM: percent cell survival: compound 0.4 μM + doxorubicin 3.5 μM; for Doxorubicin 3.5 μM: percent cell survival / Oxaliplatin 100 μM: percent cell survival / Paclitaxel 50 μM: percent cell survival / Vincristine 100 nM: percent cell survival: chemotherapy agent alone normalized to 100%; for Oxaliplatin 100 μM: percent cell survival: compound 0.4 μM + oxaliplatin 100 μM; for Paclitaxel 50 μM: percent cell survival: compound 0.4 μM + paclitaxel 50 μM; for Vincristine 100 nM: percent cell survival: compound 0.4 μM + vincristine 100 nM

| Structure (SMILES) | activity relative to AC in the LPS-triggered THP-1 cell death assay, in words (THP-1 cells) | IC50 (S. cerevisiae) | MIC (S. cerevisiae) | MIC50 (Candida glabrata strains; 24 h) | MIC (Candida glabrata strains; 24 h) | MIC50 (Candida glabrata strains; 48 h) | MIC (Candida glabrata strains; 48 h) | MFC (Candida glabrata strains) | MIC [1] | MFC [1] | MIC50 (Rhizopus strains; 24 h) | MIC (Rhizopus strains; 24 h) | MIC50 (Rhizopus strains; 48 h) | MIC (Rhizopus strains; 48 h) | MIC [2] | MFC [2] | viability at 1 µM [3] | viability at 5 µM [3] | viability at 0.4 µM [4] | viability at 0.4 µM [5] | further results |
| --- | --- | --- | --- | --- | --- | --- | --- | --- | --- | --- | --- | --- | --- | --- | --- | --- | --- | --- | --- | --- | --- |
| CCCCCCOCCCCCCCCCCNc1ccnc2ccccc12 [Compound AL, N-[10-(Hexyloxy)decyl]quinolin-4-amine] | equivalent activity to AC at both the 5-hour and 48-hour time points | 9.67 µM | 10.5 µM (≈ 4.03 µg/mL) | 2 µg/mL (≈ 5.2 µM) | 2 µg/mL (≈ 5.2 µM) | 2 to 4 µg/mL (≈ 5.2 to 10.4 µM) | 4 µg/mL (≈ 10.4 µM) | 4 µg/mL (≈ 10.4 µM) | 2 µg/mL (≈ 5.2 µM) | 2 to 4 µg/mL (≈ 5.2 to 10.4 µM) | 4 µg/mL (≈ 10.4 µM) | 4 µg/mL (≈ 10.4 µM) | 4 to 8 µg/mL (≈ 10.4 to 20.8 µM) | 8 µg/mL (≈ 20.8 µM) | 1 to 4 µg/mL (≈ 2.6 to 10.4 µM) | 2 to 4 µg/mL (≈ 5.2 to 10.4 µM) | 16.6% | 18.3% | 61.6% | 61.6% | Viable cell percent change, Chronic/48-hour, Mean (THP-1 cells; 10 ng/ml LPS, 0.1 μM test compound, 48 hours): 19.14%; Doxorubicin 3.5 μM: percent cell survival [5]: 21.9%; Oxaliplatin 100 μM: percent cell survival [5]: 21.9%; Paclitaxel 50 μM: percent cell survival [5]: 51.8%; Vincristine 100 nM: percent cell survival [5]: 28.1% |
| CCCCOCCCCCCCCCCNc1ccnc2ccccc12 [AM, N-(10-Butoxydecyl)quinolin-4-amine] | more active than AC at the chronic/48-hour time point | 13.4 µM | 18.9 µM (≈ 6.73 µg/mL) | 1 to 2 µg/mL (≈ 2.8 to 5.61 µM) | 2 to 4 µg/mL (≈ 5.61 to 11.2 µM) | 2 to 4 µg/mL (≈ 5.61 to 11.2 µM) | 2 to 4 µg/mL (≈ 5.61 to 11.2 µM) | 4 to 8 µg/mL (≈ 11.2 to 22.4 µM) | 2 to 4 µg/mL (≈ 5.61 to 11.2 µM) | 8 µg/mL (≈ 22.4 µM) | 1 to 2 µg/mL (≈ 2.8 to 5.61 µM) | 2 to 4 µg/mL (≈ 5.61 to 11.2 µM) | 2 to 4 µg/mL (≈ 5.61 to 11.2 µM) | 4 µg/mL (≈ 11.2 µM) | 0.5 to 4 µg/mL (≈ 1.4 to 11.2 µM) | 1 to 4 µg/mL (≈ 2.8 to 11.2 µM) | 24.3% | 29.5% | 58.5% | 58.5% | MFC (Rhizopus strains; range over Rhizopus strains, in 48 hr): 8 to 32 µg/mL (≈ 22.4 to 89.7 µM); Doxorubicin 3.5 μM: percent cell survival [5]: 24.7%; Oxaliplatin 100 μM: percent cell survival [5]: 25.4%; Paclitaxel 50 μM: percent cell survival [5]: 54.8%; Vincristine 100 nM: percent cell survival [5]: 26% |
